The target in the first assay is T1, human TREM2 (Homo sapiens, UniProt Q9NZC2).
T1 construct: expressed in transfected cells; host or cells: HEK293T
T1 sequence (Q9NZC2 19-230): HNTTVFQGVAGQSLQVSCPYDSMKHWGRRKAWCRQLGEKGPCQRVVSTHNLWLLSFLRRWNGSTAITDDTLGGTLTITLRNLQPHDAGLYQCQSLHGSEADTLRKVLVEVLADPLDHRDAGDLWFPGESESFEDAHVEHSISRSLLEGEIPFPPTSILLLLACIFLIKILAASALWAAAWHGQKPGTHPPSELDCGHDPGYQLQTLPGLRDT
T1 sequence (O43914 22-113 partner): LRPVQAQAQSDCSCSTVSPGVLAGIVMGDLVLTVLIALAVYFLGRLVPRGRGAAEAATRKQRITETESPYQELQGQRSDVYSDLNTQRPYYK
In words: TREM2 agonist potency by cellular Syk phosphorylation (AlphaLisa) in HEK293T-hTREM2 cells. In kind it is cell-based. The settings on record: Table D-2; HEK293 cells expressing human TREM2 and DAP12; pSyk AlphaLisa. The protocol:
In vitro Measurement of Triggering Receptor Expressed on Myeloid Cells 2 activity using cellular phosphorylation of Spleen Tyrosine Kinase (“Syk”) Assays
Measurement of TREM2 agonist potency was done using a HEK cell line expressing human TREM2 and DAP12 (HEK293T-hTREM2 cells). Binding of small molecules to, and activation of, TREM2 increases the phosphorylation of Syk. The resultant levels of Syk phosphorylation are measured using a commercial AlphaLisa reagent kit. To perform the assay, HEK-hTREM2 cells were plated at 14,000 cells per well in a 384 well plate, in 25 µL of complete growth media and incubated at 37° C., 5% CO2 for 20-24 hours.
Prior to the assay, test compounds were diluted in the 384 well plates in assay buffer and allowed to equilibrate for 30 minutes. Growth media was removed from cell plates by inversion on blotting paper, and 25 μL of test articles in assay buffer was added to cells. Cells were incubated for 45 minutes at room temperature. After 45 minutes, assay buffer was removed and 10 μL of lysis buffer was added. Plates were shaken for 20 minutes at 350 RPM at room temperature. After complete lysis, AlphaLisa reagents were added to the lysate, and fluorescence intensity was measured using a Perkin Elmer Envision plate reader. Intensities were used to generate a standard curve, and % activation was calculated. Curve fitting was performed using Prism v9 software, log(agonist) vs response—variable slope (four parameters), and EC50s were calculated from the curve fit.
The results presented in Table D have been generated with the in vitro assay described above. This assay may be used to test any of the compounds described herein to assess and characterize a compound's ability to act as an agonist of TREM2.
Molecule `C[C@@H]1CN(c2nc(-c3ccc(F)cc3F)c3c(n2)nc(N2CCC2)n3C)C[C@H](c2cnn(C3CC3)c2)O1` [Compound I-191, (2S,6R)-4-(8-(azetidin-1-yl)-6-(2,4-difluorophenyl)-7-methyl-7H-purin-2-yl)-2-(1-cyclopropyl-1H-pyrazol-4-yl)-6-methylmorpholine] came in with an EC50 of 50 to 500 nM.

Regarding `Fc1cc(C(F)(F)F)ccc1-c1nc([C@@H]2CCO[C@@H](c3cnn(C4CC4)c3)C2)nc2nc(C3CC3)sc12` (single isomer, unassigned) [Compound I-278], the EC50 lay in the range of 500 to 3000 nM.

Consider `CC(=O)N(C)c1nc2nc(N3C[C@@H](C)O[C@@H](c4cnn(C5CC5)c4)C3)nc(-c3ccc(Cl)cc3F)c2s1` (single isomer, unassigned) [Compound I-99], for which the EC50 lay within 50 to 500 nM.

Consider `CS(=O)(=O)c1nc2nc([C@H]3CCO[C@@H](c4cnn(C5CC5)c4)C3)nc(-c3ccc(C(F)(F)F)cc3N3CCC3)c2s1` [Compound I-253, 7-[2-(azetidin-1-yl)-4-(trifluoromethyl)phenyl]-5-[(2R,4S)-2-(1-cyclopropylpyrazol-4-yl)tetrahydropyran-4-yl]-2-methylsulfonyl-thiazolo[4,5-d]pyrimidine], for which the EC50 lay in the range of 50 to 500 nM.

For `CN(C)c1nc2nc(N3CCC(F)(F)[C@H](c4cnn(C5CC5)c4)C3)nc(-c3ccc(C(F)(F)F)cc3F)c2s1` (single isomer, unassigned) [Compound I-200], the concentration giving a half-maximal response (EC50) was 50 to 500 nM.

Turning to `C[C@@H]1CN(c2nc(-c3ccc(C(F)(F)F)cc3F)c3sc(N(C)C)nc3n2)C[C@H](c2cnn(C3CC3)c2)O1` [Compound I-258, 5-[(2S,6R)-2-(1-cyclopropylpyrazol-4-yl)-6-methyl-morpholin-4-yl]-7-[2-fluoro-4-(trifluoromethyl)phenyl]-N,N-dimethyl-thiazolo[4,5-d]pyrimidin-2-amine], the EC50 is no more than 50 nM.

`Cc1cc([C@H]2C[C@@H](c3nc(-c4ccc(F)cc4F)c4sc(N(C)C)nc4n3)CCO2)ccn1` [Compound I-268, 7-(2,4-difluorophenyl)-N,N-dimethyl-5-[(2R,4S)-2-(2-methyl-4-pyridyl)tetrahydropyran-4-yl]thiazolo[4,5-d]pyrimidin-2-amine] had an EC50 of 50 to 500 nM.

With `CN(C)c1nc2nc(N3CCC(F)(F)C(c4cnn(C5CC5)c4)C3)nc(-c3ccc(C(F)(F)F)cc3F)c2s1` (racemic) [Compound I-185, 5-(3-(1-cyclopropyl-1H-pyrazol-4-yl)-4,4-difluoropiperidin-1-yl)-7-(2-fluoro-4-(trifluoromethyl)phenyl)-N,N-dimethylthiazolo[4,5-d]pyrimidin-2-amine], the EC50 fell in the range of 50 to 500 nM.

As to `CN(C)c1nc2nc(C3CCO[C@@H](c4cnn(C5CC5)c4)C3)nc(Oc3ccccc3)c2s1` (stereo partly drawn) [Compound I-210, 5-[(2R)-2-(1-cyclopropylpyrazol-4-yl)tetrahydropyran-4-yl]-N,N-dimethyl-7-phenoxy-thiazolo[4,5-d]pyrimidin-2-amine], the EC50 was in the range of 500 to 3000 nM.

In turn, `CN(c1nc2nc([C@H]3CCO[C@@H](c4cnn(C5CC5)c4)C3)nc(-c3ccc(F)cc3F)c2n1C)C1CC1` [Compound I-298] showed an EC50 of 50 to 500 nM.

Consider `C[C@@H]1CN(c2nc(-c3ccc(F)cc3F)c3sc(N(C)C)nc3n2)C[C@H](c2cnn(C(F)F)c2)O1` [Compound I-235, 5-((2S,6R)-2-(1-(difluoromethyl)-1H-pyrazol-4-yl)-6-methylmorpholino)-7-(2,4-difluorophenyl)-N,N-dimethylthiazolo[4,5-d]pyrimidin-2-amine], for which the EC50 is no more than 50 nM.

In the case of `Cc1cc([C@H]2C[C@H](c3nc(-c4ccc(F)cc4F)c4sc(N(C)C)nc4n3)CCO2)ccn1` [Compound I-269, 7-(2,4-difluorophenyl)-N,N-dimethyl-5-[(2R,4R)-2-(2-methyl-4-pyridyl)tetrahydropyran-4-yl]thiazolo[4,5-d]pyrimidin-2-amine], the EC50 was 50 to 500 nM.

For `CCN(C)c1nc2nc(N3C[C@@H](C)O[C@@H](c4cnn(C5CC5)c4)C3)nc(-c3ccc(Cl)cc3F)c2s1` (single isomer, unassigned) [Compound I-119], the EC50 was in the range of 500 to 3000 nM.

The molecule `CO[C@H]1CCN(c2nc3nc(N4C[C@@H](C)O[C@@H](c5cnn(C6CC6)c5)C4)nc(-c4ccc(F)cc4F)c3s2)C1` [Compound I-224, (2S,6R)-2-(1-cyclopropylpyrazol-4-yl)-4-[7-(2,4-difluorophenyl)-2-[(3S)-3-methoxypyrrolidin-1-yl]thiazolo[4,5-d]pyrimidin-5-yl]-6-methyl-morpholine] had an EC50 of no more than 50 nM.

Turning to `Fc1cc(C(F)(F)F)ccc1-c1nc([C@H]2CCO[C@@H](c3cnn(C4CC4)c3)C2)nc2nc(N3CCC3)sc12` (single isomer, unassigned) [Compound I-249], the EC50 was no more than 50 nM.

Molecule `Cc1cc([C@H]2CN(c3nc(-c4ccc(C(F)(F)F)cc4F)c4sc(N(C)C)nc4n3)C[C@@H](C)O2)ccn1` [Compound I-263, 7-[2-fluoro-4-(trifluoromethyl)phenyl]-N,N-dimethyl-5-[(2R,6S)-2-methyl-6-(2-methyl-4-pyridyl)morpholin-4-yl]thiazolo[4,5-d]pyrimidin-2-amine] came in with a 50% effective concentration (EC50) of 50 to 500 nM.

For the molecule `C[C@@H]1CN(c2nc(-c3ccc(F)cc3F)c3sc(N(C)C)nc3n2)C[C@H](c2cnn(C3CC3)c2)O1` (single isomer, unassigned) [Compound I-84], the EC50 was no more than 50 nM.

With `Cc1nc2nc([C@@H]3CCO[C@@H](c4cnn(C5CC5)c4)C3)nc(-c3ccc(F)cc3F)c2s1` [Compound I-14, 5-[(2R,4R)-2-(1-cyclopropylpyrazol-4-yl)tetrahydropyran-4-yl]-7-(2,4-difluorophenyl)-2-methyl-thiazolo[4,5-d]pyrimidine], the EC50 is 500 to 3000 nM.

Turning to `C[C@@H]1CN(c2nc(-c3c(F)cc(F)cc3F)c3sc(N(C)C)nc3n2)C[C@H](c2cnn(C3CC3)c2)O1` [Compound I-240, 5-[(2S,6R)-2-(1-cyclopropylpyrazol-4-yl)-6-methyl-morpholin-4-yl]-N,N-dimethyl-7-(2,4,6-trifluorophenyl)thiazolo[4,5-d]pyrimidin-2-amine], the EC50 is no more than 50 nM.

Regarding `C[C@@H]1CN(c2nc(-c3ccc(Cl)cc3F)c3sc(N(C)CCO)nc3n2)C[C@H](c2cnn(C3CC3)c2)O1` (single isomer, unassigned) [Compound I-104], the EC50 lay within 50 to 500 nM.

The same assay, now with this note: Table D; HEK293 cells expressing human TREM2 and DAP12; pSyk AlphaLisa.
For `Cc1cn2c(-c3ccc(Cl)cc3F)cc(N3CCOC(c4cnn(C5CC5)c4)C3)nc2n1` (centres unmarked) [Compound I-26, 4-[5-(4-chloro-2-fluoro-phenyl)-2-methyl-imidazo[1,2-a]pyrimidin-7-yl]-2-(1-cyclopropylpyrazol-4-yl)morpholine], the EC50 was 3000 to 100000 nM.

For the molecule `Cc1nc2nc([C@H]3CCO[C@@H](c4cnn(C5CC5)c4)C3)nc(-c3ccc(F)cc3F)c2o1` [Compound 5, 5-((2R,4S)-2-(1-cyclopropyl-1H-pyrazol-4-yl)tetrahydro-2H-pyran-4-yl)-7-(2,4-difluorophenyl)-2-methyloxazolo[4,5-d]pyrimidine], the EC50 was 500 to 3000 nM.

Turning to `Cc1nc2nc([C@H]3CCO[C@@H](c4cnn(C5CC5)c4)C3)nc(-c3ccc(F)cc3F)c2s1` [Compound 4, 5-((2R,4S)-2-(1-cyclopropyl-1H-pyrazol-4-yl)tetrahydro-2H-pyran-4-yl)-7-(2,4-difluorophenyl)-2-methylthiazolo[4,5-d]pyrimidine], the EC50 lay within 50 to 500 nM.

As a reminder, the EC50 is the concentration needed to bring the measured effect to its halfway point.
